Ten compounds from patent publication US12071425B2 (Genentech, Inc., priority 2018, dated 2024) can be followed below.

Where a name gives a salt, the structure may show the parent alone.

Sequence of kinase domain of IRE1 alpha (His-tagged kinase dead construct KR, AA G547-L977, D688N) (O75460 547-977 D688N): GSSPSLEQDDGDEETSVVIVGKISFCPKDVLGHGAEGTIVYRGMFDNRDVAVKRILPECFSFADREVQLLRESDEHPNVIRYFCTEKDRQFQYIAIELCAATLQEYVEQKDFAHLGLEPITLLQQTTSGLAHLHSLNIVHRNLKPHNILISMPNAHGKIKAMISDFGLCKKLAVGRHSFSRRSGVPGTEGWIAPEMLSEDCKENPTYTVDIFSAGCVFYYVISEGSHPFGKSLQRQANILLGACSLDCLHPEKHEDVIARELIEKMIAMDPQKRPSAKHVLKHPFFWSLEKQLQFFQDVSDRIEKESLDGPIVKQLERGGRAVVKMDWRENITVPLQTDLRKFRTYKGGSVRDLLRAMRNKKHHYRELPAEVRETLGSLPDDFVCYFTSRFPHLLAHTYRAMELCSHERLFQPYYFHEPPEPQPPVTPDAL

This experiment has as its target kinase domain of IRE1 alpha (His-tagged kinase dead construct KR, AA G547-L977, D688N) (Homo sapiens (Human), UniProt O75460, D688N). The experiment can be described thus: IRE1α TR-FRET competition binding assay. To be noted: competition with Kinase Tracer 236, 0.1 μM; one hour at room temperature. Summed up: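 Sf9-expressed kinase-dead KR construct (0.006 μM final) pre-incubated 1 h at 4° C with Eu anti-His antibody (0.002 μM) in HEPES pH 7.5/MgCl2/Brij/DTT buffer; Kinase Tracer 236 (ATP-competitive probe, 0.1 μM final) added with compound. 1 h at room temperature; tracer displacement read by TR-FRET (665/615 nm).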
In general terms: TR-FRET usually uses a lanthanide donor and a delayed reading to cut background.
Broadly, the IC50 is the concentration that gives 50% inhibition. Higher therefore signals lower potency. `CC(C)(F)C1CNCC(Nc2nccc(-c3cccnc3Oc3cc(F)c(NS(=O)(=O)Cc4ccccc4)c(F)c3F)n2)C1` (single isomer, unassigned) [Compound 336, 1-Phenyl-N-(2,3,6-trifluoro-4-((3-(2-((5-(2-fluoropropan-2-yl)piperidin-3-yl)amino)pyrimidin-4-yl)pyridin-2-yl)oxy)phenyl)methanesulfonamide hydrochloride] yielded an IC50 of 0.42 nM.
Compound `O=S(=O)(Nc1cccc(Oc2ncccc2-c2ccnc(N[C@H]3CCCNC3)n2)c1)c1ccccc1Cl` [Compound 132, (S)-2-Chloro-N-(3-((3-(2-(piperidin-3-ylamino)pyrimidin-4-yl)pyridin-2-yl)oxy)phenyl)benzenesulfonamide hydrochloride] gave an IC50 of 32 nM.
With `C[C@@H](c1ccccc1)S(=O)(=O)Nc1c(F)cc(Oc2ncccc2-c2ccnc(N[C@@H]3CNC[C@@H](F)C3)n2)c(F)c1F` (single isomer, unassigned) [Compound 387, (*S)-1-Phenyl-N-(2,3,6-trifluoro-4-((3-(2-(((3S,5S)-5-fluoropiperidin-3-yl)amino)pyrimidin-4-yl)pyridin-2-yl)oxy)phenyl)ethane-1-sulfonamide] the figure was 0.2 nM.
`CCC(F)(F)CS(=O)(=O)Nc1c(F)cc(Oc2nc(C)ccc2-c2ccnc(N[C@@H]3CNC[C@@H](F)C3)n2)c(F)c1F` [Compound 270, 2,2-Difluoro-N-(2,3,6-trifluoro-4-((3-(2-(((3S,5S)-5-fluoropiperidin-3-yl)amino)pyrimidin-4-yl)-6-methylpyridin-2-yl)oxy)phenyl)butane-1-sulfonamide] showed an IC50 of 0.54 nM.
As for `CC(C)(F)C1CNCC(Nc2nccc(-c3cccnc3Oc3cc(F)c(NS(=O)(=O)Cc4ccccc4)c(F)c3F)n2)C1` (stereo not shown) [Compound 333, 1-Phenyl-N-(2,3,6-trifluoro-4-((3-(2-((5-(2-fluoropropan-2-yl)piperidin-3-yl)amino)pyrimidin-4-yl)pyridin-2-yl)oxy)phenyl)methanesulfonamide hydrochloride], the IC50 worked out at 0.19 nM.
With `Cc1c(NC(=O)Cc2ccc(Cl)cc2)ccc(Oc2ncccc2-c2ccnc(N[C@H]3CCCNC3)n2)c1C` [Compound 130, (S)-2-(4-Chlorophenyl)-N-(2,3-dimethyl-4-((3-(2-(piperidin-3-ylamino)pyrimidin-4-yl)pyridin-2-yl)oxy)phenyl)acetamide] the figure was 170 nM; with `O=S(=O)(Cc1c(F)cccc1F)Nc1c(F)cc(Oc2ncccc2-c2ccnc(N[C@@H]3CNC[C@@H](F)C3)n2)c(F)c1F` [Compound 363, 1-(2,6-Difluorophenyl)-N-[2,3,6-trifluoro-4-[[3-[2-[[(3S,5S)-5-fluoro-3-piperidyl]amino]pyrimidin-4-yl]-2-pyridyl]oxy]phenyl]methanesulfonamide], 0.2 nM; with `O=S(=O)(Cc1ccccc1)Nc1c(F)cc(Oc2ncccc2-c2ccnc(NC3CC4CCCN(C4)C3)n2)c(F)c1F` (single isomer, unassigned) [Compound 288, N-(4-((3-(2-((1-azabicyclo[3.3.1]nonan-3-yl)amino)pyrimidin-4-yl)pyridin-2-yl)oxy)-2,3,6-trifluorophenyl)-1-phenylmethanesulfonamide], 1.1 nM.
Under `O=S(=O)(Cc1ccccc1)Nc1c(F)cc(Oc2ncccc2-c2ccnc(NC3CNCC(C(F)F)C3)n2)c(F)c1F` (single isomer, unassigned) [Compound 303, N-(4-((3-(2-((5-(Difluoromethyl)piperidin-3-yl)amino)pyrimidin-4-yl)pyridin-2-yl)oxy)-2,3,6-trifluorophenyl)-1-phenylmethanesulfonamide] stands 35 nM.
With `O=S(=O)(Cc1ccccc1)Nc1c(F)cc(Oc2ncccc2-c2ccnc(NC3CNCC4(C3)CC4(F)F)n2)c(F)c1F` (single isomer, unassigned) [Compound 298, N-(4-((3-(2-((1,1-Difluoro-5-azaspiro[2.5]octan-7-yl)amino)pyrimidin-4-yl)pyridin-2-yl)oxy)-2,3,6-trifluorophenyl)-1-phenylmethanesulfonamide] the figure was 1.8 nM.
